Common to all, as to assay: P450-Glo inhibition assay, recombinant CYP
Type in all cases: biochemical

One assay deals with T1, CYP1A2 (Homo sapiens, UniProt P05177).
T1 construct: recombinant CYP450, commercial (Research Institute for Liver Diseases, Shanghai); P450-Glo Screening System (Promega)
T1 sequence (P05177 2-516): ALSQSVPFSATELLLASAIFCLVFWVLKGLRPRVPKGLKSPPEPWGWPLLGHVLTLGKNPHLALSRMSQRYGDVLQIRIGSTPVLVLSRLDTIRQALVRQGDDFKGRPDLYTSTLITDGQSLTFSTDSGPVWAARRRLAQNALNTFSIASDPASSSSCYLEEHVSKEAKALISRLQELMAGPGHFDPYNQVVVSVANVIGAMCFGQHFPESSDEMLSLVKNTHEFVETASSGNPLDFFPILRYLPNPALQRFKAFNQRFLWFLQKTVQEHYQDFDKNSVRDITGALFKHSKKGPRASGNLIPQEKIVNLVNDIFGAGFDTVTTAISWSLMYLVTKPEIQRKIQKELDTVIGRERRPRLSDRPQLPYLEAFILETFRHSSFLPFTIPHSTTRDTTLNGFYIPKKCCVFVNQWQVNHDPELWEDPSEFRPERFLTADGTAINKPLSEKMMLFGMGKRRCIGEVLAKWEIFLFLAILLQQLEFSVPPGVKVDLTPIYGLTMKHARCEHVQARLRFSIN

The target of the next assay is T2, CYP2D6 (Homo sapiens, UniProt P10635).
T2 construct: recombinant CYP450, commercial (Research Institute for Liver Diseases, Shanghai); P450-Glo Screening System (Promega)
T2 sequence (P10635 whole entry): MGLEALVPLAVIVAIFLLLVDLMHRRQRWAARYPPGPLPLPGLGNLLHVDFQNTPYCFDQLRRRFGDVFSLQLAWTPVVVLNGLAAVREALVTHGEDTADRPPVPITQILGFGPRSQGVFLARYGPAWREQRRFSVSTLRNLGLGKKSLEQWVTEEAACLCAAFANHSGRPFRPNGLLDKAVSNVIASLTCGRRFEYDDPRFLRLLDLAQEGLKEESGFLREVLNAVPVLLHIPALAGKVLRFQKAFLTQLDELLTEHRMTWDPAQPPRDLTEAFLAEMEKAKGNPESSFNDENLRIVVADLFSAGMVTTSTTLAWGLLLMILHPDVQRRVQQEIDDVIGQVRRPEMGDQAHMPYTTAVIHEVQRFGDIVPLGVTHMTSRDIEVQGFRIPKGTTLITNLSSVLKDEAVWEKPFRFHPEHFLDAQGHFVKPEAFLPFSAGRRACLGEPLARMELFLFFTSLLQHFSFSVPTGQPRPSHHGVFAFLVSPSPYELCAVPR

Another assay has as its target T3, CYP2C9 (Homo sapiens, UniProt P11712).
T3 construct: recombinant CYP450, commercial (Research Institute for Liver Diseases, Shanghai); P450-Glo Screening System (Promega)

Another assay concerns the target T4, CYP2C19 (Homo sapiens, UniProt P33261).
T4 construct: recombinant CYP450, commercial (Research Institute for Liver Diseases, Shanghai); P450-Glo Screening System (Promega)

A further assay concerns the target T5, CYP3A4 (Homo sapiens, UniProt P08684).
T5 construct: recombinant CYP450, commercial (Research Institute for Liver Diseases, Shanghai); P450-Glo Screening System (Promega)
The following applies: read-out: IC50 (μM) (95% Confidence Interval) / Isoimperatorin.

The mark [1] stands for this setting: read-out: IC50 (μM) (95% Confidence Interval) / Isoimperatorin.

Drawing on publication PMC6102536, “A Metabolism-Based Synergy for Total Coumarin Extract of Radix Angelicae Dahuricae and Ligustrazine on Migraine Treatment in Rats” (Molecules : A Journal of Synthetic Chemistry and Natural …, 2018), this text covers IC50 for 2 molecules.

pIC50: −log10 of the molar value. Read-outs that look alike come from different tables or passages of the source.

T3 sequence (P11712 whole entry): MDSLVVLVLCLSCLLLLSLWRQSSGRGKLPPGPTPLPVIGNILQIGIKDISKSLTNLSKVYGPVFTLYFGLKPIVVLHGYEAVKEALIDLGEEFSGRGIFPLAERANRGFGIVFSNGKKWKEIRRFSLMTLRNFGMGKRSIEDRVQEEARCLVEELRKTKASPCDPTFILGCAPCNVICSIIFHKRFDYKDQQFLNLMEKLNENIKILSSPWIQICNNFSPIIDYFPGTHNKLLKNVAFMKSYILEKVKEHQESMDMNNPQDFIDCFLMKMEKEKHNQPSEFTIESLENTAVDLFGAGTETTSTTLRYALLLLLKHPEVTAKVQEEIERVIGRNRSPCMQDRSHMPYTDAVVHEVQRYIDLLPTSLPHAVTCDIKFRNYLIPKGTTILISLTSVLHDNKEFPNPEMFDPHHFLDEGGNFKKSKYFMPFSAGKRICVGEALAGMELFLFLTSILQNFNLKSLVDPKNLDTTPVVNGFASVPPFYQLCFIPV
T4 sequence (P33261 whole entry): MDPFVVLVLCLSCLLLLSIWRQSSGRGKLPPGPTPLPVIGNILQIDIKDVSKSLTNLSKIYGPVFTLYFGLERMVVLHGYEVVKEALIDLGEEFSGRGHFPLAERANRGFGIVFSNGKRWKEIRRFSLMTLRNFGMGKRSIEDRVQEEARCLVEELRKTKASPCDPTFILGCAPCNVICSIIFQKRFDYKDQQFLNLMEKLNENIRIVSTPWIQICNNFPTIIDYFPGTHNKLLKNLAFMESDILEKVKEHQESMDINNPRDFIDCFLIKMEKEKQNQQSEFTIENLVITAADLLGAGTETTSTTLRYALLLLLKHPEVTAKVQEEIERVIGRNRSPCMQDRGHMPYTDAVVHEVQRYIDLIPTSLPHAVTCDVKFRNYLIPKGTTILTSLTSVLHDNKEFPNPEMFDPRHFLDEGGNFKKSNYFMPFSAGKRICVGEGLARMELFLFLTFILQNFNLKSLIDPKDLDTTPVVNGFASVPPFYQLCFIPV
T5 sequence (P08684 2-503): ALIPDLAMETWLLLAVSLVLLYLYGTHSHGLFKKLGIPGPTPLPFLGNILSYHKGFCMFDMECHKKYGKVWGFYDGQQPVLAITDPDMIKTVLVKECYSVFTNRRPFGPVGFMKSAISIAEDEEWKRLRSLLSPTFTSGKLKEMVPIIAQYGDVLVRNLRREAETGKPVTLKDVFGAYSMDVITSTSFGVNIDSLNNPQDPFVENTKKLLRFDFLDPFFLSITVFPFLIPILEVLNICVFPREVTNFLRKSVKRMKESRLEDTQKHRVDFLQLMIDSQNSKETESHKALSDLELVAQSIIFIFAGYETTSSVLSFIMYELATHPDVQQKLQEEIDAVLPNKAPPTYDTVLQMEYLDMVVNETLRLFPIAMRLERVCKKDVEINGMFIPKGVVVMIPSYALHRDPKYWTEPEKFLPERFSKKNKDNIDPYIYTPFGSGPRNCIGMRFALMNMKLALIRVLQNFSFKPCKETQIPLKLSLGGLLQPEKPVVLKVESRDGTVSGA

The term pIC50 denotes the IC50 on a negative log10 scale, so that one unit is a factor of ten. Take `CC(C)=CCOc1c2occc2cc2ccc(=O)oc12` [imperatorin]: the pIC50 is 7.10 at CYP1A2, 5.04 at CYP2D6, 5.32 at CYP2C9 and 4.08 on CYP2C19.

Regarding `CC(C)=CCOc1c2ccoc2cc2oc(=O)ccc12` [isoimperatorin], the IC50 was found to be 8.26 µM at CYP1A2 (setting [1]); 1.47 µM at CYP3A4; 1.56 µM on CYP2D6 (setting [1]); 5.69 µM on CYP2C9 (setting [1]); 19.6 µM on CYP2C19 (setting [1]).
